# Calls of active or inactive are those of the source. The rule behind the calls is not given here.
# Assays:
# [1] = Stability in human liver microsomes assessed as parent compound remaining measured after 60 mins; format: ADME, Microsome; conditions: read-out: Stability
# [2] = target: T1, Diacylglycerol O-acyltransferase 1 (Homo sapiens, UniProt O75907); assay: biochemical
# T1 sequence (O75907 whole entry): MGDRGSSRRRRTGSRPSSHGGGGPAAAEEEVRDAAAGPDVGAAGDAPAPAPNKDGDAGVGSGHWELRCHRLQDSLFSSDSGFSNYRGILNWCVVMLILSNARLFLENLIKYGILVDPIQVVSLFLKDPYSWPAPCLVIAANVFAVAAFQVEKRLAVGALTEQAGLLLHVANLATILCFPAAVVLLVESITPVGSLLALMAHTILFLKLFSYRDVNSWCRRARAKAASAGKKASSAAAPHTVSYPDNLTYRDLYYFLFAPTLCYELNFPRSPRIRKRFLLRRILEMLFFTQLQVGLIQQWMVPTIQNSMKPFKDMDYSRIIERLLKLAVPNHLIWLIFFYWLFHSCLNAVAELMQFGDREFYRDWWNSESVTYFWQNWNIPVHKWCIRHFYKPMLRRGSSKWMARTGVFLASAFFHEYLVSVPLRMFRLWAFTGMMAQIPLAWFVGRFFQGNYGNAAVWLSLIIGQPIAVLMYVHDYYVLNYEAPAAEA
# Description: Inhibition of N-terminal His6-tagged human recombinant DGAT1 expressed in insect cell membrane using [1-14C]decanoyl-CoA substrate by phospholipid flash plate assay
# [3] = Efflux ratio in human Caco2 cells at 5 uM at pH 7.4; format: ADME, cell-based; conditions: Caco-2, pH 7.4
# [4] = tested on: Mus musculus; assay: Reduction in serum triglyceride level in CD1 mouse postprandial hyperlipidemia model administered orally as single dose 1 hr before oral corn oil bolus challenge and measured after 2 hrs; format: functional, organism-based
# [5] = Terminal half life in rat at 5 mg/kg, po administered as single dose; format: ADME, organism-based; design: dose 5 mg/kg, route oral; conditions: in vivo, read-out: beta t1/2 (converted)
# [6] = Volume of distribution at steady state in rat at 5 mg/kg, iv administered as single dose; format: ADME, organism-based; design: dose 5 mg/kg, route intravenous; conditions: in vivo, read-out: Vdss
# [7] = Permeability in human Caco2 cells at 0.5 uM at pH 7.4; format: ADME, cell-based; conditions: Caco-2, pH 7.4, read-out: permeability
# [8] = species: Canis familiaris; assay: Toxicity in dog assessed as incidence of hemodynamic effect measured at highest compound concentration; format: organism-based, Canis lupus familiaris; conditions: in vivo
# [9] = species: Mustela putorius furo; assay: Toxicity in ferret assessed as induction of emesis; format: organism-based; conditions: in vivo
# [10] = tested on: Canis familiaris; assay: Toxicity in dog assessed as toxicity symptoms at terminal compound concentration dosed orally for 2 weeks; format: organism-based, Canis lupus familiaris; conditions: in vivo, po, 336 h
# [11] = tested on: Canis familiaris; assay: AUC in dog dosed orally for 2 weeks assessed as terminal exposure; conditions: in vivo, po, 336 h
# [12] = AUC in mouse at 10 mg/kg, po administered as single dose; format: ADME, organism-based; design: dose 10 mg/kg, route oral; conditions: plasma
# [13] = Plasma concentration in CD1 mouse postprandial hyperlipidemia model at 0.03 mg/kg, po administered as single dose 1 hr before oral corn oil bolus challenge and measured after 2 hrs; format: ADME, organism-based; design: dose 0.03 mg/kg, route oral
# [14] = Stability in mouse liver microsomes assessed as parent compound remaining measured after 60 mins; format: ADME, Microsome; conditions: read-out: Stability
# [15] = tested on: Mus musculus; assay: Reduction in serum triglyceride level in CD1 mouse postprandial hyperlipidemia model at 3 mg/kg, po administered as single dose 1 hr before oral corn oil bolus challenge and measured after 2 hrs; format: functional; design: scale not given: the % may be the effect or the level left
# [16] = Terminal half life in mouse at 10 mg/kg, iv administered as single dose; format: ADME, organism-based; design: dose 10 mg/kg, route intravenous; conditions: in vivo, read-out: beta t1/2 (converted)
# [17] = tested on: Rattus norvegicus; assay: Toxicity in female rat assessed as toxicity symptoms at terminal compound concentration dosed orally for 2 weeks; format: organism-based; conditions: in vivo, po, 336 h
# [18] = Oral bioavailability in mouse at 10 mg/kg administered as single dose; format: ADME, organism-based; conditions: in vivo
# [19] = tested on: Mus musculus; assay: Reduction in serum triglyceride level in overnight fasted DIO mouse model at 0.3 mg/kg, po administered as single dose 1 hr before and for 5 hrs after oral corn oil bolus challenge; format: functional, organism-based; design: dose 0.3 mg/kg
# [20] = Terminal half life in mouse at 10 mg/kg, po administered as single dose; format: ADME, organism-based; design: dose 10 mg/kg, route oral; conditions: in vivo, read-out: beta t1/2 (converted)
# [21] = target: T2, Diacylglycerol O-acyltransferase 1 (Mus musculus, UniProt Q9Z2A7); assay: Inhibition of mouse DGAT1 using [1-14C]decanoyl-CoA substrate by phospholipid flash plate assay
# T2 sequence (Q9Z2A7 whole entry): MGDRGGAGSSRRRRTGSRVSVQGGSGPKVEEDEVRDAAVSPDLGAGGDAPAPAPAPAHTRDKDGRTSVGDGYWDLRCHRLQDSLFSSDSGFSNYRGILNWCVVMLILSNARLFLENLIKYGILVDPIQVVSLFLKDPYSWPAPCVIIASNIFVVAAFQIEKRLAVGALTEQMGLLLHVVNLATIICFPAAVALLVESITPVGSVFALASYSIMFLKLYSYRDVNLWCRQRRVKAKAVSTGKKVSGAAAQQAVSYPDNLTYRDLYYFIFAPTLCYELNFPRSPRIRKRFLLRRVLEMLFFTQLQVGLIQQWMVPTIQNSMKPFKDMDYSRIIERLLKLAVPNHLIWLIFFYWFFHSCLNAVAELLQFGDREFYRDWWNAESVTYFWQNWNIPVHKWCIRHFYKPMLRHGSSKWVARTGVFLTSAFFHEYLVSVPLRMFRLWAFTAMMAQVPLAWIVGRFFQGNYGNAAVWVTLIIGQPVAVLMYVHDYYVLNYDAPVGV
# [22] = Plasma clearance in mouse at 10 mg/kg, iv administered as single dose; format: ADME, organism-based; design: dose 10 mg/kg, route intravenous
# [23] = Oral bioavailability in rat at 5 mg/kg administered as single dose; format: ADME, organism-based; conditions: in vivo
# [24] = AUC in rat at 5 mg/kg, po administered as single dose; format: ADME, organism-based; design: dose 5 mg/kg, route oral; conditions: plasma
# [25] = Cmax in dog; format: ADME, organism-based, Canis lupus familiaris; conditions: plasma
# [26] = Plasma concentration in CD1 mouse postprandial hyperlipidemia model at 3 mg/kg, po administered as single dose 1 hr before oral corn oil bolus challenge and measured after 2 hrs; format: ADME, organism-based; design: dose 3 mg/kg, route oral
# [27] = Plasma concentration in CD1 mouse postprandial hyperlipidemia model at 0.3 mg/kg, po administered as single dose 1 hr before oral corn oil bolus challenge and measured after 2 hrs; format: ADME, organism-based; design: dose 0.3 mg/kg, route oral
# [28] = tested on: Mus musculus; assay: Reduction in serum triglyceride level in CD1 mouse postprandial hyperlipidemia model at 0.03 mg/kg, po administered as single dose 1 hr before oral corn oil bolus challenge and measured after 2 hrs; format: functional; design: scale not given: the % may be the effect or the level left
# [29] = target: Voltage-gated inwardly rectifying potassium channel KCNH2 (Homo sapiens, UniProt Q12809); assay: Inhibition of human ERG by manual patch clamp assay
# Chain of Voltage-gated inwardly rectifying potassium channel KCNH2 (Q12809 whole entry): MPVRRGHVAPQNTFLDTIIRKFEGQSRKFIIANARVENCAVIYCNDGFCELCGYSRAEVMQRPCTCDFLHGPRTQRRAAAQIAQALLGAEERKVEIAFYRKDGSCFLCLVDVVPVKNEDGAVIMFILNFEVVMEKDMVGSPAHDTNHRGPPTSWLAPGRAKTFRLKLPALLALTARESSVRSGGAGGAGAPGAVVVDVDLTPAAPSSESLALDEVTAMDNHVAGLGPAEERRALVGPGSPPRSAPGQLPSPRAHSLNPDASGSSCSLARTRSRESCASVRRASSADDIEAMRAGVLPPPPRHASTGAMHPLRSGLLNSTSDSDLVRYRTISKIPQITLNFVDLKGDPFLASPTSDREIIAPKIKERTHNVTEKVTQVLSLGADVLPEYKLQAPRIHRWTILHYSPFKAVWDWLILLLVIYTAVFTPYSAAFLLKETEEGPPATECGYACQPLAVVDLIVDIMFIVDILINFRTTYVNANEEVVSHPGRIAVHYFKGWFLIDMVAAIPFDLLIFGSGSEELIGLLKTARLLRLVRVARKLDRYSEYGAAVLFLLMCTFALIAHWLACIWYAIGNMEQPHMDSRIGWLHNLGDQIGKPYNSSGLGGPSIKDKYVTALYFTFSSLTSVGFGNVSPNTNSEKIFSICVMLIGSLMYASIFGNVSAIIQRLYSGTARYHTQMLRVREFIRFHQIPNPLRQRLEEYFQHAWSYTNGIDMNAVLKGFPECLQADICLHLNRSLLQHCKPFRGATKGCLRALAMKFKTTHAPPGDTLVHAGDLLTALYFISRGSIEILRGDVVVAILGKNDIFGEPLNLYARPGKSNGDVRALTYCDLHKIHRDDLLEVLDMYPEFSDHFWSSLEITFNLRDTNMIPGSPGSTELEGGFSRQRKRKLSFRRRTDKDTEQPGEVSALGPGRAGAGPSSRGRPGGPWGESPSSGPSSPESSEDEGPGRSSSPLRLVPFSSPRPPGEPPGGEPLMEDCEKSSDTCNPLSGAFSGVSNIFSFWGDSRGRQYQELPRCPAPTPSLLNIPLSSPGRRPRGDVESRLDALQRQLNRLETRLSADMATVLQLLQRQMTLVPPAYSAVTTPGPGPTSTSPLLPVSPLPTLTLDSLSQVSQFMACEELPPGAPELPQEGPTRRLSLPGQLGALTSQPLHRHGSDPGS
# [30] = Cmax in mouse at 10 mg/kg, po administered as single dose; format: ADME, organism-based; design: dose 10 mg/kg, route oral; conditions: in vivo
# [31] = Plasma clearance in rat at 5 mg/kg, iv administered as single dose; format: ADME, organism-based; design: dose 5 mg/kg, route intravenous
# [32] = tested on: Rattus norvegicus; assay: AUC in female rat dosed orally for 2 weeks assessed as terminal exposure; conditions: in vivo, po, 336 h
# [33] = Cmax in rat; format: ADME, organism-based; conditions: plasma
# [34] = Toxicity in dog Purkinje fibers assessed as prolongation of APD90 by Purkinje fibers repolarization assay; format: tissue-based, Canis lupus familiaris, Purkinje fiber; conditions: in vitro
# [35] = Terminal half life in rat at 5 mg/kg, iv administered as single dose; format: ADME, organism-based; design: dose 5 mg/kg, route intravenous; conditions: in vivo, read-out: beta t1/2 (converted)
# [36] = species: Rattus norvegicus; assay: Toxicity in rat assessed as changes in gastrointestinal transit measured at highest compound concentration; format: organism-based; conditions: in vivo
# [37] = Efflux ratio in human Caco2 cells at 0.5 uM at pH 7.4; format: ADME, cell-based; conditions: Caco-2, pH 7.4
# [38] = tested on: Mus musculus; assay: Reduction in serum triglyceride level in CD1 mouse postprandial hyperlipidemia model at 0.3 mg/kg, po administered as single dose 1 hr before oral corn oil bolus challenge and measured after 2 hrs; format: functional; design: scale not given: the % may be the effect or the level left
# [39] = Cmax in rat at 5 mg/kg, po administered as single dose; format: ADME, organism-based; design: dose 5 mg/kg, route oral; conditions: in vivo
# [40] = target: T3, Diacylglycerol O-acyltransferase 2 (Homo sapiens, UniProt Q96PD7); assay: Inhibition of human recombinant DGAT2 expressed in insect cell membrane using [1-14C]decanoyl-CoA substrate by phospholipid flash plate assay
# T3 sequence (Q96PD7 whole entry): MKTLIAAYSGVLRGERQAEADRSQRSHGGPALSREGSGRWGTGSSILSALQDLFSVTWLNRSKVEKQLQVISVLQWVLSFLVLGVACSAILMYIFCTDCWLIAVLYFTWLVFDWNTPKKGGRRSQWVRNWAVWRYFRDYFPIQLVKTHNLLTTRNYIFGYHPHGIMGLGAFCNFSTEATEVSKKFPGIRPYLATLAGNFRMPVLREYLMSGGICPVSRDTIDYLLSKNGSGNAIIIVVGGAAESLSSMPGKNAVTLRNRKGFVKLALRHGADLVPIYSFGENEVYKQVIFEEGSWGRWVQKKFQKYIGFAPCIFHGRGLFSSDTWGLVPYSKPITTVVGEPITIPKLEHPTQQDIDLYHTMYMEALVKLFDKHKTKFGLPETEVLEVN
# [41] = target: T1, Diacylglycerol O-acyltransferase 1; assay: Inhibition of human DGAT1 expressed in human HeLa cells assessed as reduction in triglyceride synthesis; format: cell-based
# [42] = Volume of distribution at steady state in mouse at 10 mg/kg, iv administered as single dose; format: ADME, organism-based; design: dose 10 mg/kg, route intravenous; conditions: in vivo, read-out: Vdss
smiles,measurement,setting,value
CC(C)c1ccc(-c2cnc3ccnn3c2N)cc1,remaining at 1 h,[1],< 5%
Nc1c(-c2ccc(Br)cc2)cnc2ccnn12,remaining at 1 h,[1],< 5%
Nc1c(-c2cccc(Br)c2)cnc2ccnn12,IC50,[2],> 10 µM
same,remaining at 1 h,[1],< 5%
Nc1c(-c2ccc([C@H]3CC[C@H](CC(=O)O)CC3)cc2)cnc2ccnn12,efflux ratio at 5 µM,[3],1.1
same,Activity,[4],Dose-dependent effect
same,half-life,[5],5.6 h
same,Vd,[6],0.3 L/kg
same,Papp at 0.5 µM,[7],84 ×10⁻⁶ cm/s
same,Activity,[8],Non-toxic
same,Activity,[9],Non-toxic
same,Activity,[10],Non-toxic
same,AUC,[11],789 µg·h/mL
same,IC50,[2],0.008 µM
same,AUC,[12],151 µg·h/mL
same,concentration at 2 h,[13],33 ng/mL
same,remaining at 1 h,[14],99%
same,Activity,[15],90%
same,half-life,[16],4.6 h
same,Activity,[17],Non-toxic
same,bioavailability,[18],78%
same,Activity,[19],Active
same,half-life,[20],5.1 h
same,IC50,[21],0.008 µM
same,clearance,[22],1.67 mL/min/kg
same,bioavailability,[23],91%
same,AUC,[24],130 µg·h/mL
same,Cmax,[25],20500 ng/mL
same,concentration at 2 h,[26],3100 ng/mL
same,concentration at 2 h,[27],360 ng/mL
same,Activity,[28],40%
same,IC50,[29],> 300 µM
same,Cmax,[30],17400 ng/mL
same,clearance,[31],0.833 mL/min/kg
same,AUC,[32],3455 µg·h/mL
same,remaining at 1 h,[1],97%
same,Cmax,[33],30200 ng/mL
same,Activity,[34],Non-toxic
same,half-life,[35],3.8 h
same,Activity,[36],Non-toxic
same,efflux ratio at 0.5 µM,[37],1.4
same,Activity,[38],60%
same,Cmax,[39],9300 ng/mL
same,IC50,[40],> 10 µM
same,IC50,[41],0.078 µM
same,Vd,[42],0.3 L/kg
CS(=O)(=O)c1ccc(-c2cnc3ccnn3c2N)cc1,IC50,[2],> 10 µM
same,remaining at 1 h,[1],91%
Nc1c(-c2ccc(C(=O)O)cc2)cnc2ccnn12,IC50,[2],> 10 µM
same,remaining at 1 h,[1],100%
CC(C)(C)c1ccc(-c2cncnc2N)cc1,remaining at 1 h,[1],73%
CC(C)(C)c1ccc(-c2cnc3ccnn3c2N)cc1,remaining at 1 h,[1],16%
Nc1c(-c2ccccc2Br)cnc2ccnn12,IC50,[2],> 10 µM
same,remaining at 1 h,[1],69%
Nc1c(-c2ccccc2)cnc2ccnn12,IC50,[2],> 10 µM

# Reference: ChEMBL document CHEMBL2163253, “Identification and preliminary characterization of a potent, safe, and orally efficacious inhibitor of acyl-CoA:diacylglycerol acyltransferase 1” (J Med Chem, 2012)
